“Also recorded” adds a separate entry of the source.

We go through five compounds from US10787451B2, “Crystalline form of GnRH receptor antagonist and preparation method therefor” (Jiangsu Hengrui Medicine Co., Ltd., priority 2016, dated 2020).

Data set [1] is described as follows: Stability test of crystal forms spread flat in the air under lighting, heating and high humidity (HPLC purity, XRPD). Format: physicochemical. To be noted: for purity as detected by HPLC, 40° C.: heating 40° C.; for purity as detected by HPLC, 40° C. / purity as detected by HPLC, 60° C. / purity as detected by HPLC, RH 75% / purity as detected by HPLC, RH 90% / purity as detected by HPLC, Lighting: spread flat in the air; for purity as detected by HPLC, 60° C.: heating 60° C.; for purity as detected by HPLC, RH 75%: high humidity RH 75%; for purity as detected by HPLC, RH 90%: high humidity RH 90%; for purity as detected by HPLC, Lighting: lighting (4500 Lux). How it is done:
The product sample of crystal form I prepared in Example 1 and the product samples of crystal forms A, B, C and D prepared in Examples 12, 13, 14 and 15 were spread flat in the air to test sample stability under conditions of lighting (4500 Lux), heating (40° C., 60° C.), and high humidity (RH 75%, RH 90%). Samplings were carried out on Day 5 and Day 10.

Data set [2] in a line: Special stability study of crystal form I (grinding, heating, tableting; XRPD and DSC). Format: physicochemical. On the procedure:
1. Differential Scanning Calorimeter, DSC
Instrument type: Mettler Toledo DSC 1 STAR^e System
Heating rate: 10.0° C./min
Temperature range: 40-300° C.
2. X-Ray Powder Diffraction, XRPD
Instrument type: Bruker D8 Focus X-ray powder diffractometer
Ray: monochromatic Cu-Kα ray (λ=1.5406)
Scanning mode: θ/2θ, Scanning range: 2-40°
Voltage: 40 kV, Electric current: 40 mA
The sample of crystal form I of the compound of formula (I) prepared according to the method of Example 1 was ground, heated and tableted.

`CONC(=O)Nc1ccc(-n2nc3c(c2CN(C)C)c(=O)n(-c2ccc(OC)nn2)c(=O)n3Cc2c(F)cccc2F)cc1` [Crystal form A, 1-(4-(7-(2,6-Difluorobenzyl)-3-((dimethylamino)methyl)-5-(6-methoxypyridazin-3-yl)-4,6-dioxo-4,5,6,7-tetrahydro-2H-pyrazolo[3,4-d]pyrimidin-2-yl)phenyl)-3-methoxy urea]: in data set [1] (Day 0), the “purity as detected by HPLC, 40° C.” value came out at 97.86%; the “purity as detected by HPLC, 60° C.” value was determined as 97.86%; the “purity as detected by HPLC, RH 75%” value worked out at 97.86%; the “purity as detected by HPLC, RH 90%” value came out at 97.86%. In data set [1] (Day 0), the “purity as detected by HPLC, Lighting” value is given as 97.86%. Also, in data set [1] (Day 5), the “purity as detected by HPLC, 40° C.” value was 97.50%; the “purity as detected by HPLC, 60° C.” value came to 97.62%; the “purity as detected by HPLC, RH 75%” value was 97.61%; the “purity as detected by HPLC, RH 90%” value turned out to be 97.59%. In data set [1] (Day 5), the “purity as detected by HPLC, Lighting” value was determined as 97.27%. For the same compound, in data set [1] (Day 10), the “purity as detected by HPLC, 40° C.” value is given as 97.52%; the “purity as detected by HPLC, 60° C.” value was 97.50%; the “purity as detected by HPLC, RH 75%” value is 97.65%; the “purity as detected by HPLC, RH 90%” value was found to be 97.79%. The “purity as detected by HPLC, Lighting” value in data set [1] (Day 10) worked out at 97.13%.

For `CONC(=O)Nc1ccc(-n2nc3c(c2CN(C)C)c(=O)n(-c2ccc(OC)nn2)c(=O)n3Cc2c(F)cccc2F)cc1` [Crystal form B, 1-(4-(7-(2,6-Difluorobenzyl)-3-((dimethylamino)methyl)-5-(6-methoxypyridazin-3-yl)-4,6-dioxo-4,5,6,7-tetrahydro-2H-pyrazolo[3,4-d]pyrimidin-2-yl)phenyl)-3-methoxy urea], in data set [1] (Day 0), the “purity as detected by HPLC, 40° C.” value is 99.69%; the “purity as detected by HPLC, 60° C.” value is 99.69%; the “purity as detected by HPLC, RH 75%” value is listed as 99.69%; the “purity as detected by HPLC, RH 90%” value is 99.69%. The “purity as detected by HPLC, Lighting” value in data set [1] (Day 0) stood at 99.69%. In data set [1] (Day 5), the “purity as detected by HPLC, 40° C.” value worked out at 99.45%; the “purity as detected by HPLC, 60° C.” value is 99.45%; the “purity as detected by HPLC, RH 75%” value came to 99.52%; the “purity as detected by HPLC, RH 90%” value worked out at 99.47%. In data set [1] (Day 5), the “purity as detected by HPLC, Lighting” value worked out at 99.39%. For the same compound, in data set [1] (Day 10), the “purity as detected by HPLC, 40° C.” value is 99.03%; the “purity as detected by HPLC, 60° C.” value was 99.34%; the “purity as detected by HPLC, RH 75%” value was found to be 99.34%; the “purity as detected by HPLC, RH 90%” value came out at 99.34%. Besides, the “purity as detected by HPLC, Lighting” value in data set [1] (Day 10) is recorded as 99.19%.

With `CONC(=O)Nc1ccc(-n2nc3c(c2CN(C)C)c(=O)n(-c2ccc(OC)nn2)c(=O)n3Cc2c(F)cccc2F)cc1` [Crystal form C, 1-(4-(7-(2,6-Difluorobenzyl)-3-((dimethylamino)methyl)-5-(6-methoxypyridazin-3-yl)-4,6-dioxo-4,5,6,7-tetrahydro-2H-pyrazolo[3,4-d]pyrimidin-2-yl)phenyl)-3-methoxy urea], in data set [1] (Day 0), the “purity as detected by HPLC, 40° C.” value is on record as 99.75%; the “purity as detected by HPLC, 60° C.” value was 99.75%; the “purity as detected by HPLC, RH 75%” value stood at 99.75%; the “purity as detected by HPLC, RH 90%” value is listed as 99.75%. Also, the “purity as detected by HPLC, Lighting” value in data set [1] (Day 0) is on record as 99.75%. Also, in data set [1] (Day 5), the “purity as detected by HPLC, 40° C.” value was determined as 99.57%; the “purity as detected by HPLC, 60° C.” value came out at 99.53%; the “purity as detected by HPLC, RH 75%” value is listed as 99.51%; the “purity as detected by HPLC, RH 90%” value is listed as 99.54%. Also, the “purity as detected by HPLC, Lighting” value in data set [1] (Day 5) came to 98.30%. In addition, in data set [1] (Day 10), the “purity as detected by HPLC, 40° C.” value was 99.35%; the “purity as detected by HPLC, 60° C.” value is on record as 99.47%; the “purity as detected by HPLC, RH 75%” value stood at 99.48%; the “purity as detected by HPLC, RH 90%” value was found to be 99.38%. For the same compound, the “purity as detected by HPLC, Lighting” value in data set [1] (Day 10) was found to be 96.83%.

Consider `CONC(=O)Nc1ccc(-n2nc3c(c2CN(C)C)c(=O)n(-c2ccc(OC)nn2)c(=O)n3Cc2c(F)cccc2F)cc1` [Crystal form D, 1-(4-(7-(2,6-Difluorobenzyl)-3-((dimethylamino)methyl)-5-(6-methoxypyridazin-3-yl)-4,6-dioxo-4,5,6,7-tetrahydro-2H-pyrazolo[3,4-d]pyrimidin-2-yl)phenyl)-3-methoxy urea], for which, in data set [1] (Day 0), the “purity as detected by HPLC, 40° C.” value is 99.67%; the “purity as detected by HPLC, 60° C.” value was found to be 99.67%; the “purity as detected by HPLC, RH 75%” value turned out to be 99.67%; the “purity as detected by HPLC, RH 90%” value is reported as 99.67%. Besides, the “purity as detected by HPLC, Lighting” value in data set [1] (Day 0) worked out at 99.67%. In data set [1] (Day 5), the “purity as detected by HPLC, 40° C.” value was found to be 99.44%; the “purity as detected by HPLC, 60° C.” value came out at 99.48%; the “purity as detected by HPLC, RH 75%” value is reported as 99.57%; the “purity as detected by HPLC, RH 90%” value amounted to 99.57%. The “purity as detected by HPLC, Lighting” value in data set [1] (Day 5) is listed as 99.43%. Also, in data set [1] (Day 10), the “purity as detected by HPLC, 40° C.” value was determined as 99.31%; the “purity as detected by HPLC, 60° C.” value amounted to 99.40%; the “purity as detected by HPLC, RH 75%” value is reported as 99.34%; the “purity as detected by HPLC, RH 90%” value was 99.39%. Moreover, in data set [1] (Day 10), the “purity as detected by HPLC, Lighting” value stood at 99.22%.

`CONC(=O)Nc1ccc(-n2nc3c(c2CN(C)C)c(=O)n(-c2ccc(OC)nn2)c(=O)n3Cc2c(F)cccc2F)cc1` [Crystal form I, 1-(4-(7-(2,6-difluorobenzyl)-3-((dimethylamino)methyl)-5-(6-methoxypyridazin-3-yl)-4,6-dioxo-4,5,6,7-tetrahydro-2H-pyrazolo[3,4-d]pyrimidin-2-yl)phenyl)-3-methoxyurea]: in data set [1] (Day 0), the “purity as detected by HPLC, 40° C.” value is listed as 99.36%; the “purity as detected by HPLC, 60° C.” value was found to be 99.36%; the “purity as detected by HPLC, RH 75%” value was 99.36%; the “purity as detected by HPLC, RH 90%” value is 99.36%. Also, the “purity as detected by HPLC, Lighting” value in data set [1] (Day 0) was determined as 99.36%. In data set [1] (Day 5), the “purity as detected by HPLC, 40° C.” value was 99.33%; the “purity as detected by HPLC, 60° C.” value came to 99.24%; the “purity as detected by HPLC, RH 75%” value worked out at 99.22%; the “purity as detected by HPLC, RH 90%” value turned out to be 99.27%. Further, the “purity as detected by HPLC, Lighting” value in data set [1] (Day 5) was found to be 99.26%. In data set [1] (Day 10), the “purity as detected by HPLC, 40° C.” value is given as 99.41%; the “purity as detected by HPLC, 60° C.” value is reported as 99.30%; the “purity as detected by HPLC, RH 75%” value was 99.31%; the “purity as detected by HPLC, RH 90%” value came to 99.27%. Also, in data set [1] (Day 10), the “purity as detected by HPLC, Lighting” value worked out at 99.20%. For the same compound, the “crystal form by XRPD test after exposure” value in data set [1] (lighting, high humidity and high temperature, spread in the air) is on record as “not changed; also recorded: unchanged”. Moreover, the “stability compared with crystal forms A, B, C and D” value in data set [1] (lighting, high humidity and high temperature, decrease of HPLC purity) is on record as “significantly better”. This compound gave a DSC peak in data set [2] (after grinding treatment for 10 minutes) of 166.16 °C. Further, in data set [2] (after heating treatment for 3 hours at 80° C.), the DSC peak came out at 168.36 °C. This compound also gave a DSC peak in data set [2] (after tableting treatment) of 168.97 °C. For the same compound, in data set [2] (grinding, heating and tableting), the “crystal form during grinding, heating and tableting procedure” value is recorded as “not changed”.
